Source: patent US12121510B2 (Cedars-Sinai Medical Center, priority 2016, dated 2024)

What was measured:
Daudi = assay: Lymphoma cell growth IC50 (MTT); format: cell-based, human; settings: Example 13, 72 h, read-out: IC50
Description: (§1) Exemplary Embodiments are generally performed as follows, unless otherwise noted. Simvastatin is purchased from Ark Pharm, Inc. (Arlington Heights, IL). Cisplatin (CIS) is purchased from MedKoo Biosciences, Inc. (Chapel Hill, NC). Dihydroartemisinin is purchased from TCI America (Portland, OR). All other chemicals and reagents are purchased from standard sources such as Sigma-Aldrich and/or VWR and are of highest quality available. Puromycin dihydrochloride was purchased from Alfa Aesar (Tewksbury, MA). Deionized water ([…]) used for making solutions is obtained from Milli-Q Direct Ultrapure Water System from Millipore (Billerica, MA, USA). All intermediates are characterized by 1H NMR and mass analysis and the purity of compounds are analyzed by HPLC. 1H NMR data are collected on Bruker 400 MHz spectrometers using standard parameters; chemical shifts are reported in ppm (δ) in reference to residual non-deuterated solvent. ESI mass spectroscopy analysis is performed using a Thermo Fisher LTQ Orbitrap Elite system. IC50 is the half maximal inhibitory concentration and determined is determined by crystal violet assay unless otherwise noted.
(§2) The crystal violet assay is performed as follows, unless otherwise noted. Cell lines are supplemented with RPMI 1640 medium, 10% fetal bovine serum, 1% PenStrep, and placed in a humidified atmosphere containing 5% CO2 at 37° C. 5,000 cells/well renal cancer cells and 10,000 cells/well lymphoma cells are seeded in 96 well plates in 100 microliter medium/per well for 24 h. […] Renal cancer cells are fixed with 3.7% paraformaldehyde for 15 minutes and are stained with Crystal violet solution (0.5% in 25% methanol) for 30 minutes. After rinsing with water cell layers are dried and decolorized with Sorenson citrate with shaking for 20 minutes. Light absorption of the extracted supernatant is read at 595 nm. Lymphoma cell growth was evaluated using MTT and cells are incubated for 4 hours. 100 microliters of isopropanol is added, and the extracted supernatant fraction is read at absorption maximum of 595 nm.
(§3) Standard cell culture conditions typically are RPMI 1640 medium, 10% fetal bovine serum, 1% PenStrep, and are performed in a humidified atmosphere containing 5% CO2 at 37° C. Generally, 5,000 cells/well-10,000 cells/well are seeded in 96 well plates in 100 microliter medium/per well for 24 h, or as described in Example 16, unless otherwise noted. Certain cells require specialized media, growth factors, antibiotics, or culture condition adjustments, as will be apparent to a person of ordinary skill in the art.
as §2, with “Cell” for “The crystal violet assay is performed as follows, unless otherwise noted. Cell”, “cultured as follows. […]” for “supplemented with RPMI 1640 medium, 10% fetal bovine serum, 1% PenStrep, and placed in a humidified atmosphere containing 5% CO2 at 37° C.”, “is” for “was”

Namalwa = assay: Lymphoma cell growth IC50 (MTT); format: cell-based, human; settings: Example 13, 72 h, read-out: IC50
Description: as §1, §2, §3
as §2, with “Cell” for “The crystal violet assay is performed as follows, unless otherwise noted. Cell”, “cultured as follows. […]” for “supplemented with RPMI 1640 medium, 10% fetal bovine serum, 1% PenStrep, and placed in a humidified atmosphere containing 5% CO2 at 37° C.”, “is” for “was”

Raji = assay: Lymphoma cell growth IC50 (MTT); format: cell-based, human; settings: Example 13, 72 h, read-out: IC50
Description: as §1, §2, §3
as §2, with “Cell” for “The crystal violet assay is performed as follows, unless otherwise noted. Cell”, “cultured as follows. […]” for “supplemented with RPMI 1640 medium, 10% fetal bovine serum, 1% PenStrep, and placed in a humidified atmosphere containing 5% CO2 at 37° C.”, “is” for “was”

Ramos = assay: Lymphoma cell growth IC50 (MTT); format: cell-based, human; settings: Example 13, 72 h, read-out: IC50
Description: as §1, §2, §3
as §2, with “Cell” for “The crystal violet assay is performed as follows, unless otherwise noted. Cell”, “cultured as follows. […]” for “supplemented with RPMI 1640 medium, 10% fetal bovine serum, 1% PenStrep, and placed in a humidified atmosphere containing 5% CO2 at 37° C.”, “is” for “was”

22Rv1 = assay: Cancer cell growth IC50 (crystal violet); format: cell-based, human; settings: Example 13, 72 h
Description: as §1
(§4) The crystal violet assay is performed as follows, unless otherwise noted. Cell lines are supplemented with RPMI 1640 medium, 10% fetal bovine serum, 1% PenStrep, and placed in a humidified atmosphere containing 5% CO2 at 37° C. 5,000 cells/well renal cancer cells and 10,000 cells/well lymphoma cells are seeded in 96 well plates in 100 microliter medium/per well for 24 h. […] Renal cancer cells are fixed with 3.7% paraformaldehyde for 15 minutes and are stained with Crystal violet solution (0.5% in 25% methanol) for 30 minutes. After rinsing with water cell layers are dried and decolorized with Sorenson citrate with shaking for 20 minutes. Light absorption of the extracted supernatant is read at 595 nm. Lymphoma cell growth was evaluated using MTT and cells are incubated for 4 hours. 100 microliters of isopropanol is added, and the extracted supernatant fraction is read at absorption maximum of 595 nm. […]

ARCaP-E = assay: Cancer cell growth IC50 (crystal violet); format: cell-based; settings: Example 13, 72 h
Description: as §1, §2, §3

C4-2B = assay: Cancer cell growth IC50 (crystal violet); format: cell-based; settings: Example 13, 72 h
Description: as §1, §2, §3

C4-2 = assay: Cancer cell growth IC50 (crystal violet); format: cell-based; settings: Example 13; C42; 72 h
Description: as §1, §2, §3

LNCaP = assay: Cancer cell growth IC50 (crystal violet); format: cell-based; settings: Example 13, 72 h
Description: as §1, §2, §3

MCF-7 = assay: Cancer cell growth IC50 (crystal violet); format: cell-based; settings: Example 13, 72 h
Description: as §1, §2, §3

PC3M = assay: Cancer cell growth IC50 (crystal violet); format: cell-based; settings: Example 13, 72 h
Description: as §1, §2, §3

PC3 = assay: Cancer cell growth IC50 (crystal violet); format: cell-based; settings: Example 13, 72 h
Description: as §1, §2, §3

U87 = assay: Cancer cell growth IC50 (crystal violet); format: cell-based; settings: Example 13, 72 h
Description: as §1, §2, §3

MIAPaCa II = assay: Cancer cell growth IC50 / sensitization (crystal violet); format: cell-based; settings: Example 13, 72 h
Description: as §1, §4

CTC 752-S-1 = assay: Circulating tumor cell growth IC50 / sensitization; format: cell-based, human; settings: CTC-752-S-1 human pancreatic cancer cells; 72 hours
Description: as §1, §3
Pancreatic cancer cells are cultured for 72 hours in vitro and exposed to the conventional chemotherapeutic drugs Gemcitabine (GEM) and Paclitaxel (PAC), known to inhibit pancreatic cancer growth in patients. GEM (or PAC) alone are compared to a combination with SIM, or a combination with DZ-SIM. […] Representative results are illustrated in the graphs in FIG. 3.
Cells are cultured according to their standard culturing conditions, and IC50s are determined as described herein-above.
Representative results of the determined IC50s are shown in the table below for the indicated cancer cells cultured in vitro, including CTCs (C752-S-1), B-Cell Lymphoma (Namalwa), prostate cancer cells (C4-2B), and renal cancer cells (Caki-1). The cells are cultured according to their standard culturing conditions, and IC50s are determined as described herein-above.

[1] = test system: Ramos, a B-cell lymphoma, cultured as 3-D spheroids; assay: Cell viability IC50 in 3-D spheroids; format: cell-based, human
Description: as §1
Cancer cells were Ramos, a B-cell lymphoma, cultured as 3-D spheroids, cultured according to their standard culturing conditions.

NKPC-961 = assay: Sensitization of pancreatic cancer cells to CIS and GEM; format: cell-based, mouse
Description: GEM (or PAC) alone are compared to a combination with SIM, or a combination with DZ-SIM.

A549 or A549/DDP cells = assay: CIS IC50 with constant DZ-SIM ester or amide, Crystal Violet assay; format: cell-based, human; settings: 72 h
Experimental: Cell proliferation is determined by a Crystal Violet assay. The data represent the mean+/−SEM for two assays done in quadruplicate.

22Rv1 tumors = assay: Prostate tumor xenograft growth; format: in vivo, mice; settings: IP twice per week, 37 days; SIM 1.1 mg/kg, DZ-SIM 5.5 mg/kg, DT 8 mg/kg
Experimental: A human prostate tumor xenograft model, 22Rv1 in immune compromised mice, is employed as follows. 1×10^6 freshly harvested cells of a cultured human prostate carcinoma cell line, 22Rv1, are inoculated s.q. in mice. Mice bearing 22Rv1 tumors (10 tumors/group) are randomized into 7 groups on day-1, and administered drugs by IP (intraperitoneally) at the next day (day-2), and subsequently twice per week, using the following drugs and dosages: a control/vehicle (V, i.e. no drug), DZ (5 μM or 3.9 mg/kg, calculated based on the body weight of mice which averaged 20 grams), SIM (5 μM or 1.1 mg/kg), DZ-SIM (5 μM or 5.5 mg/kg), docetaxel (DT, 8 mg/kg), SIM+DT (drug doses as indicated), and DZ-SIM+DT (drug doses as indicated). Administration is continued for a total of 37 days, and tumor volumes are measured at the indicated times (see FIG. 4). […] Thus therapeutically resistant prostate tumors can be rendered sensitive by DZ-SIM but not SIM.

Caki-1 = assay: Renal cancer cell growth IC50 (crystal violet); format: cell-based, human; settings: Example 11
Description: as §1, §2, §3
as §2, with “Cell” for “The crystal violet assay is performed as follows, unless otherwise noted. Cell”, “cultured as follows. […]” for “supplemented with RPMI 1640 medium, 10% fetal bovine serum, 1% PenStrep, and placed in a humidified atmosphere containing 5% CO2 at 37° C.”, “is” for “was”

[2] = test system: caspase-3 and-7 activities in Caki-1 cells; assay: CaspaseGlo 3/7 luminescent apoptosis assay; format: cell-based, human; settings: 24 hours after treatment
Description: Caspase-Glo® 3/7 Assay (Promega) is a homogeneous, luminescent assay that measures caspase-3 and-7 activities that provides a luminogenic caspase-3/7 substrate, which contains the tetrapeptide sequence DEVD, in a reagent optimized for caspase activity, luciferase activity and cell lysis. A single Caspase-Glo 3/7 Reagent in an “add-mix measure” format results in cell lysis, followed by caspase cleavage of the substrate and generation of a “glow-type” luminescent signal, produced by luciferase. Luminescence is proportional to the amount of caspase activity present. Caspase-Glo® 3/7 Reagent is prepared, mixed and the reagent and the 96-well plate containing cells are equilibrated to room temperature. […] The plate is incubated at room temperature for 30 minutes to 3 hours, depending upon the cell culture system (optimal incubation period determined empirically). Luminescence of each sample is measured in a plate-reading luminometer. […]
B-cell lymphoma cells (Namalwa) are cultured in RPMI 1640, 10% fetal bovine serum, 1% PenStrep, and placed in a humidified atmosphere containing 5% CO2 at 37° C. […] 100 microliters of Caspase-Glo 3/7 assay is added and luminescence is then read. […] 100 microliters of Caspase-Glo 3/7 assay is added and luminescence is then read.

[3] = test system: PARP, Caspase 9 and p53 in Caki-1 cells; assay: Western blot of apoptosis related proteins; format: cell-based, human
Description: Results also confirm elevated expression of p53 (a tumor suppressor) in human kidney cancer Caki cells (see panel D in FIG. 9).

[4] = test system: normal mouse kidney and liver; assay: Immunohistochemical staining of normal kidney and liver; format: in vivo; settings: mice harbored with human Burkitt's lymphoma
Description: (§5) These normal kidney and liver tissues were obtained from mice harbored with human Burkitt's lymphoma.

[5] = test system: Namalwa human lymphoma xenograft tumors; assay: Immunohistochemical staining of xenograft tumors; format: in vivo; settings: Namalwa xenograft tumors of mice
Description: as §5

mouse kidney = assay: Kidney histopathology (hematoxylin and eosin); format: in vivo; settings: normal kidney of mice implanted with kidney tumors

CCC(C)(C)C(=O)O[C@H]1C[C@@H](C)C=C2C=C[C@H](C)[C@H](CC[C@@H]3C[C@@H](OC(=O)CCCCCN4/C(=C/C=C5\CCCC(/C=C/C6=[N+](CCCCS(=O)(=O)[O-])c7ccccc7C6(C)C)=C5Cl)C(C)(C)c5ccccc54)CC(=O)O3)[C@H]21 [DZ-SIM ester]
IC50 (Daudi): 5.61 µM | IC50 (Namalwa): 7.15 µM | IC50 (Raji): 8.8 µM | IC50 (Ramos): 2.74 µM | IC50 (22Rv1): 4.9 µM | IC50 (ARCaP-E): 4.76 µM | IC50 (C4-2B): 1.81 µM | IC50 (C4-2): 4.26 µM | IC50 (LNCaP): 1.79 µM | IC50 (MCF-7): 9.9 µM | IC50 (PC3M): 5.19 µM | IC50 (PC3): 7.15 µM | IC50 (U87): 1.32 µM | IC50 (MIAPaCa II): 2.12 µM | Sensitization to GEM or PAC (CTC 752-S-1): more effective sensitizer to GEM or PAC than SIM | IC50 ([1]; Homo sapiens, Ramos 3-D spheroids, 72 h, single agent): 2.74 µM | Increase of CIS cytotoxicity ([1]; Ramos, 2 μM DZ-SIM ester): over 190 fold | Potency relative to SIM ([1]; Ramos, 72 h): 5 fold | Sensitization to CIS and GEM (NKPC-961): about equally sensitize | Reduction of the IC50 of CIS by combination (A549 or A549/DDP cells): up to 200 fold | Sensitization of cancer cells to CIS (A549 or A549/DDP cells; combination with CIS): sensitize cancer cells to CIS | Growth of 22Rv1 tumors in vivo (tumor volume) (22Rv1 tumors): inhibited the growth of tumors in vivo

CC1(C)C(/C=C/C2=C(Cl)C(=C/C=C3/N(CCCCCC(=O)[O][Pt]([NH2])([NH2])([OH])([Cl])[Cl])c4ccccc4C3(C)C)/CCC2)=[N+](CCCCS(=O)(=O)[O-])c2ccccc21 [DZ-CIS ester]
In vitro growth of Caki-1 (Caki-1): inhibited by DZ-CIS | Level of apoptosis, CaspaseGlo 3/7 [2]: increased apoptosis | Expression of apoptosis related proteins PARP, Caspase 9 and p53 [3]: induces elevation of apoptosis related proteins | Apoptosis markers (cleaved caspas-3 and M30) / damage in normal kidney and liver [4]: protects normal kidney and liver from damage by CIS | Apoptosis in xenograft tumors (cleaved caspase-3 and M30) [5]: increased apoptosis | Cell proliferation in xenograft tumors (Ki67) [5]: decreased cell proliferation | Kidney damage, histopathology (mouse kidney): protects from more severe kidney damage
